Data set [1] can be described thus: Acute toxicity (mortality after 24 hours). The conditions noted are these: mouse, in vivo, po. How it is done:
(§1) The acute toxicity and central nervous system activity of the compounds of the invention were investigated in mice using various test-models. These tests were carried out in accordance with the procedures summarised below.
Male mice of the OF1, IFFA, CREDO strain and having an average weight of 22±1 g, receive, by oesophagial intubation, a solution of arabic gum and distilled water (1/2-1/2) containing the compound to be studied, at a rate of 0.25 ml per 20 g of body weight. The symptomatology of the intoxication was observed and the mortality was recorded after 24 hours.

Data set [2] has as its system mice. Put plainly: Spontaneous motility. It counts as in vivo. The conditions noted are these: Mus musculus, 20 min, read-out: Spontaneous motility, variation; for change in vivo at 25 mg/kg: dose 25 mg.kg^-1. How it is done:
as §1
Groups of 4 mice prepared as above are placed in circular corridors intersected by infrared beams, making it possible to count the number of movements made by the animals. The number of movements is summed up after 20 minutes and the results are expressed as the percentage variation relative to the group of control animals, which have only received the vehicle (gum arabic/water).

Data set [3] relates to mice. Put plainly: Hypnotic activity (sleep induction time, sleep time). Format: in vivo. How it is done: as §1
Mice receive, by intraperitoneal administration, 0.25 ml per 20 g of body weight of a solution consisting of arabic gum and of 0.154M NaCl solution (1/2-1/2) containing 12.5 mg.kg.^-1 of the compound to be studied, and the "sleep induction time"--the time taken for the loss of righting reflex to appear after the animal has been placed in the dorsal decubitus position--and the "sleep time"--the duration of the above loss of reflex--are then noted. For this test, pentobarbital is given as a reference, administered at a dose of 50 mg.kg.^-1.

The subject of another data set is dogs. Put plainly: Pentobarbital-induced heart failure in anaesthetized dogs, intraduodenal administration. The note with it: 1 mg/kg I.D.; for Aortic capacity / Bradycardia and hypotension induced by pentobarbital / Inotropic effect: after 20 minutes. It counts as in vivo. From the text:
In addition to the activity pattern described above the compounds of formula I, in which R1 and R2 both represent hydrogen have a particularly beneficial effect in the treatment of heart failure. The latter activity has been tested using a technique derived from Deitchman and Snyder, Arch.Int. Pharmacodyn. 250, 65 (1981).
After having been anaesthesized dogs under articicial respiration are connected with pieces of apparatus for continuous monitoring the left intraventicular pressure, the dP/dt max, the amplitude of the left ventricular contraction, the aortic capacity, the heart frequency and the arteric pressure.
Heart failure is induced by intravenous administration of pentobarbital at a dose of 20 mg per kg body weight per minute until a decrease of 50% of dP/dt max is obtained after which this level is maintained by pentobarbital administration at a dose of 0.4 mg/kg/min. Ten minutes after the beginning of this heart failure effect the products to be tested are administered. The results are compared with those obtained using Dopamine and Dobutamine as reference compounds.
Then the test was repeated by administering the products intraduodenally (I.D.). Dopamine and Dobutamine were administered at a dose of 10 mg/kg I.D. and the compounds of the invention at a dose of 1 mg/kg.

Setting [4] is: mice, oesophagial intubation, mortality after 24 hours, read-out: Estimated LD 50.
Where [5] appears, read: dose 50 mg.kg^-1, relative to control animals, 20 minutes.
[6] abbreviates: relative to control animals, 20 minutes.
Where [7] appears, read: pentobarbital reference, 50 mg.kg^-1.

Molecules are shown by their SMILES. Structures can show the parent of a compound that is named as a salt. Where two headings read alike, the source gives them in different places.

As to `O=c1[nH]c2ccc(CCN3CCN(c4ccc(F)cc4)CC3)cc2o1` [Compound 19], the LD50 at 24 h in data set [1] (setting [4]) was 1000 mg/kg. The change in vivo at 6.25 mg/kg with mice [2] was -97%. Besides, in the data set with mice [3] (12.5 mg.kg^-1, intraperitoneal), the “Hypnotic activity (in words)” value is “strong hypnotic activity”; the “Hypnotic activity, sleep induction time” value is 15.1 ± 2 min; the “Hypnotic activity, sleep time” value stood at 78 ± 16 min.

Take `COc1ccccc1N1CCN(CCc2ccc3c(c2)oc(=O)n3C)CC1` [Compound 9, 3-Methyl-6-(2-[4-(2-methoxyphenyl)-piperazin-1-yl]-ethyl)-benzoxazolinone]: in data set [1] (setting [4]), the LD50 at 24 h was 600 mg/kg. The change in vivo at 6.25 mg/kg with mice [2] is -93.2%. In the data set with mice [3] (12.5 mg.kg^-1, intraperitoneal), the “Hypnotic activity, sleep induction time” value was 18 ± 7.5 min and the “Hypnotic activity, sleep time” value came out at 46.2 ± 15 min.

With `COc1ccccc1N1CCN(CCc2ccc3[nH]c(=O)oc3c2)CC1` [Compound 10, 6-(2-[4-(2-methoxyphenyl)-piperazin-1-yl]-ethyl)-benzoxazolinone], the LD50 at 24 h in data set [1] (setting [4]) is 1000 mg/kg. Besides, the change in vivo at 6.25 mg/kg in the data set with mice [2] was -99.3%. Moreover, in the data set with mice [3] (12.5 mg.kg^-1, intraperitoneal), the “Hypnotic activity, sleep induction time” value was 18.2 ± 4.3 min and the “Hypnotic activity, sleep time” value was 86 ± 15 min.

In turn, `Cn1c(=O)oc2cc(CCN3CCN(c4ncccn4)CC3)ccc21` [Compound 7] registered an LD50 at 24 h in data set [1] of 1200 mg/kg. In the data set with mice [2] (setting [5]), the change in vivo at 50 mg/kg was -69.9%.

In the case of `Cn1c(=O)oc2cc(CCN)ccc21` [Compound 2, 3-Methyl-6-(2-aminoethyl)-benzoxazolinone(hydrochloride)], in the data set on dogs, the “Duration of the effects” value is on record as “at least 60 minutes”; the Aortic capacity result is reported as “increase of the aortic capacity”; the “Bradycardia and hypotension induced by pentobarbital” value is “recovery of the bradycardia and the hypotension induced by pentobarbital”; the Inotropic effect result is given as “strong positive inotropic effect”.

Turning to `NCCc1ccc2[nH]c(=O)oc2c1` [Compound 15], the LD50 at 24 h in data set [1] (setting [4]) was 1200 mg/kg. Besides, in the data set with mice [2], the change in vivo at 50 mg/kg was -23.2%. In the data set on dogs, the Aortic capacity result was “increase of the aortic capacity”; the “Bradycardia and hypotension induced by pentobarbital” value was “recovery of the bradycardia and the hypotension induced by pentobarbital”; the Inotropic effect result is recorded as “strong positive inotropic effect”.

`Cn1c(=O)oc2cc(CCNC3CC3)ccc21` [Compound 16]: the LD50 at 24 h in data set [1] (setting [4]) was 600 mg/kg. In addition, the change in vivo at 50 mg/kg in the data set with mice [2] was -34.4%.

Turning to `CNCCc1ccc2[nH]c(=O)oc2c1` [Compound 12], the LD50 at 24 h in data set [1] (setting [4]) was 1200 mg/kg. In addition, the change in vivo at 50 mg/kg in the data set on mice [2] is -28%.

Turning to `O=c1[nH]c2ccc(CCN3CCN(c4cccc(C(F)(F)F)c4)CC3)cc2o1` [Compound 8], the LD50 at 24 h in data set [1] turned out to be 1000 mg/kg. Also, in the data set with mice [2] (setting [6]), the change in vivo at 25 mg/kg was -93.5%.

In data set [1], `O=c1[nH]c2ccc(CCN3CCN(c4ncccn4)CC3)cc2o1` [Compound 17] registered an LD50 at 24 h of 480 mg/kg. Further, the change in vivo at 25 mg/kg in the data set with mice [2] (setting [6]) was -62.8%.

Regarding `CCCC(C)C1(CC)C(=O)NC(=O)NC1=O` (stereo not drawn) [pentobarbital, reference compound], in the data set on mice [3] (setting [7]), the “Hypnotic activity, sleep induction time (reference)” value came to 9.5 ± 2.2 min and the “Hypnotic activity, sleep time (reference)” value was found to be 48 ± 7 min.

On to `Cn1c(=O)oc2cc(CCN3CCN(c4ccc(F)cc4)CC3)ccc21` [Compound 18, 3-Methyl-6-(-[4-(4-fluorophenyl)-piperazin-1-yl]-ethyl)-benzoxazolinone], for which the LD50 at 24 h in data set [1] (setting [4]) is 1000 mg/kg. In addition, in the data set on mice [2], the change in vivo at 6.25 mg/kg was -98.8%. For the same compound, in the data set with mice [3] (12.5 mg.kg^-1, intraperitoneal), the “Hypnotic activity, sleep induction time” value was 26.9 ± 6 min and the “Hypnotic activity, sleep time” value is 132 ± 25 min.

Take `Cn1c(=O)oc2cc(CCN3CCN(c4cccc(C(F)(F)F)c4)CC3)ccc21` [Compound 3]: the LD50 at 24 h in data set [1] amounted to 1000 mg/kg. The change in vivo at 50 mg/kg in the data set with mice [2] (setting [5]) is -97.5%.

As to `Cn1c(=O)oc2cc(CCN3CCOCC3)ccc21` [Compound 4], the LD50 at 24 h in data set [1] (setting [4]) was 1200 mg/kg. Also, the change in vivo at 12.5 mg/kg in the data set with mice [2] (dose 12.5 mg.kg^-1, relative to control animals, 20 minutes) was -11.9%.

The values above are taken from patent publication US4558060A, “Benzoxazolinones” (Riom Laboratories - Cerm S.A., priority 1982, dated 1985).
